Laboratory results published in article PMC11073699, “Odorant receptors for floral- and plant-derived volatiles in the yellow fever mosquito, Aedes aegypti (Diptera: Culicidae)” (PLOS ONE, 2024).
“And” between values parts separate entries of the source, which are not always exact repeats. Identical values can stand only once.

Key:
Format in all cases: cell-based
AaegOR13 = target: T1, AaegOR13 (Aedes aegypti, UniProt Q16Z13); test: Two-electrode voltage clamp of Xenopus laevis oocytes expressing AaegOR13/Orco (blends, unitary compounds, concentration-response); settings: unitary compounds
T1 sequence (Q16Z13 1-389): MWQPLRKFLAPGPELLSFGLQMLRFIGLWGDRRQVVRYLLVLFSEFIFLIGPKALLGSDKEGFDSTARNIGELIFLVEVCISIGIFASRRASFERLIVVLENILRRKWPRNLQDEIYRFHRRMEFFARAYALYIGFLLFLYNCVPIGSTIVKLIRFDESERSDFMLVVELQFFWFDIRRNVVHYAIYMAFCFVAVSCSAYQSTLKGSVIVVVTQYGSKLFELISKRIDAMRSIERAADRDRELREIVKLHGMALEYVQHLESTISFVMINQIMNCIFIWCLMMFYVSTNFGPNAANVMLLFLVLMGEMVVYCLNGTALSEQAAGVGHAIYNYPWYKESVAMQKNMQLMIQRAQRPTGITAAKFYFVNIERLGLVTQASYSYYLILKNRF
T1 sequence (Q178U6 1-478 partner): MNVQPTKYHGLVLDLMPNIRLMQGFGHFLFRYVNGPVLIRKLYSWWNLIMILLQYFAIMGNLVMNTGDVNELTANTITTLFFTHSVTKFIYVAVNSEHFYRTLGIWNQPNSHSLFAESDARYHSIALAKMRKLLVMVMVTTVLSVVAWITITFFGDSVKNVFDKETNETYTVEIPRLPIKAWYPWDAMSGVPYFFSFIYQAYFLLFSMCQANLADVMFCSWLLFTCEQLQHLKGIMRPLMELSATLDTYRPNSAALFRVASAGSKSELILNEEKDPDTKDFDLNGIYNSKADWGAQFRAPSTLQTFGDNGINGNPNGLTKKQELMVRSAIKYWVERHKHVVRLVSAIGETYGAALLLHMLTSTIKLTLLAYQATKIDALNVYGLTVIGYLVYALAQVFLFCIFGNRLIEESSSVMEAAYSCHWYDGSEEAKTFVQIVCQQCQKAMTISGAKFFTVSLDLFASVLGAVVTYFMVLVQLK
Description: (§1) The coding regions of ten AaegOR genes of interest (S3 File) and AaegOrco were synthesized by Twist Bioscience (San Francisco, CA, USA) and cloned into the pENTR plasmid. The Gateway LR directional cloning system (Invitrogen Corp., Carlsbad, CA, USA) was utilized to subclone AaegOR coding regions into the pSP64t-RFA oocyte expression plasmid. Plasmids were purified using the GeneJet Plasmid Miniprep Kit (ThermoFisher Scientific, Waltham, MA, USA). Purified plasmids were sequenced in both directions to confirm coding regions.
(§2) Chemical compounds (S6 File) used in the deorphanization of AaegORs were purchased from Acros Organics (Morris, NJ, USA), Alfa Aesar (Ward Hill, MA, USA), and ThermoFisher Scientific (Waltham, MA, USA) at the highest purity available. Compounds were stored as 1M stocks in 100% DMSO. Serial dilutions of each compound were prepared in 10% DMSO and blended by chemical class.
(§3) pSP64t-RFA: AaegOR clones were linearized using Xbal, and cRNAs were synthesized using the mMESSAGE mMACHINE ® SP6 kit (Life Technologies, Carlsbad, CA, USA). Xenopus laevis stage V-VII oocytes purchased from Xenopus1 (Dexter, MI, USA) were stored at 18°C in Incubation medium (ND96 96 with 5% dialyzed horse serum, 50μg/mL gentamycin, 100μg/mL streptomycin, 100μg/mL penicillin, and 550μg/mL sodium pyruvate). 30nL of cRNA was injected into multiple oocytes using a microinjection syringe pump (World Precision Instruments, Sarasota, FL, USA) maintained at 18°C for 48–72 hrs. Odorant blends were perfused across individual oocytes for 10–15 seconds, held at a resting membrane potential of -80 mV using an OC-725C oocyte clamp (Warner Instruments, LLC, Hamden, CT, USA). Induced currents were measured indirectly using the two-electrode voltage clamp technique (TEVC). Following each stimulus, currents were allowed to return to baseline before further stimulation. Data was captured using the Digidata 1550 B digitizer and PClamp10 software (Molecular Devices, San Jose, CA, USA). Concentration-response curves were generated by perfusing unitary odorants over oocytes at increasing concentrations from [10^-3M] to [10^-9M]. Data were analyzed using GraphPad Prism 8 (GraphPad Software Inc., La Jolla, CA, USA). At least two biological replicates were conducted at each concentration and for each compound. Data for at least seven oocytes responding to each compound was analyzed (S7 File).

AaegOR15 = target: T2, AaegOR15 (Aedes aegypti, UniProt A0A6B9QIR2); test: Two-electrode voltage clamp of Xenopus laevis oocytes expressing AaegOR15/Orco (blends, unitary compounds, concentration-response); settings: unitary compounds of Alcohols 2; for Raw data (Responses in nA), compounds of blend Alcohols 2: individual oocytes 1-10 (replicates); for Normalized response, compounds of blend Alcohols 2, Average: average of 10 oocytes, 1-hexanol = 100; for Normalized response, compounds of blend Alcohols 2: individual oocytes 1-10, normalized to the largest response of each oocyte (1-hexanol = 100)
T2 sequence (A0A6B9QIR2 1-390): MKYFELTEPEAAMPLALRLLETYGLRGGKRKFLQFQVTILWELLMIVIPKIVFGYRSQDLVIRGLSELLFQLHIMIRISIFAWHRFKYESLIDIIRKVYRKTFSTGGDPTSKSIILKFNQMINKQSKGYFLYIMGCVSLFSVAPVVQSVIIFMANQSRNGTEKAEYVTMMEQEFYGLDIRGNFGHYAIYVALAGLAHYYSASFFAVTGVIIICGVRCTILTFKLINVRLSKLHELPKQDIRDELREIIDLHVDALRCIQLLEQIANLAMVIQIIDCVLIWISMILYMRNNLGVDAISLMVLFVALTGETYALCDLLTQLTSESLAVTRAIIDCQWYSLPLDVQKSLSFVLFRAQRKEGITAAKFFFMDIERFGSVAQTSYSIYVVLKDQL
T2 sequence (Q178U6 1-478 partner): T1 sequence (Q178U6 1-478 partner)
Description: as §1, §2, §3

AaegOR28 = target: T3, AaegOR28 (Aedes aegypti, UniProt Q0IGE1); test: Two-electrode voltage clamp of Xenopus laevis oocytes expressing AaegOR28/Orco (blends, unitary compounds, concentration-response); settings: for Raw Data (Responses in nA), Alcohols 3 unitary compounds / Raw Data (Responses in nA), concentration-response / Normalized response, Average, Alcohols 3 unitary compounds / Normalized response, Alcohols 3 unitary compounds: AaegOR28; for Raw Data (Responses in nA), Alcohols 3 unitary compounds / Normalized response, Average, Alcohols 3 unitary compounds / Normalized response, Alcohols 3 unitary compounds: compounds of blend Alcohols 3; for Raw Data (Responses in nA), Alcohols 3 unitary compounds: individual oocytes 1-10; for Raw Data (Responses in nA), concentration-response: individual oocytes 1-8; for Normalized response, Average, Alcohols 3 unitary compounds: average of 10 oocytes; for Normalized response, Alcohols 3 unitary compounds: individual oocytes 1-10, normalized to largest response of each oocyte
T3 sequence (Q0IGE1 1-394): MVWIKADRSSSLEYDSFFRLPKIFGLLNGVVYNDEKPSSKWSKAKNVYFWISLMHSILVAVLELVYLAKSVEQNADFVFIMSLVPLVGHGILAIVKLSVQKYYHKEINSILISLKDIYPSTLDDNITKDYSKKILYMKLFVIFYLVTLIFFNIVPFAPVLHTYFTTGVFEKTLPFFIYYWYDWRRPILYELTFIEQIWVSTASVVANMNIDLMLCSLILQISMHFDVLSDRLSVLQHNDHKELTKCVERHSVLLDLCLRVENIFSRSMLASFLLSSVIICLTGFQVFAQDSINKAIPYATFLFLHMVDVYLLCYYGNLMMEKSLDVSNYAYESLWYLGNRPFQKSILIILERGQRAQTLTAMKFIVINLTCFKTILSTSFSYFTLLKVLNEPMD
T3 sequence (Q178U6 1-478 partner): T1 sequence (Q178U6 1-478 partner)
Description: as §1, §2, §3

AaegOR55 = target: T4, AaegOR55 (Aedes aegypti, UniProt Q16T12); test: Two-electrode voltage clamp of Xenopus laevis oocytes expressing AaegOR55/Orco (blends, unitary compounds, concentration-response); settings: AaegOR55, compounds of blend Indoles 1
T4 sequence (Q16T12 10-392): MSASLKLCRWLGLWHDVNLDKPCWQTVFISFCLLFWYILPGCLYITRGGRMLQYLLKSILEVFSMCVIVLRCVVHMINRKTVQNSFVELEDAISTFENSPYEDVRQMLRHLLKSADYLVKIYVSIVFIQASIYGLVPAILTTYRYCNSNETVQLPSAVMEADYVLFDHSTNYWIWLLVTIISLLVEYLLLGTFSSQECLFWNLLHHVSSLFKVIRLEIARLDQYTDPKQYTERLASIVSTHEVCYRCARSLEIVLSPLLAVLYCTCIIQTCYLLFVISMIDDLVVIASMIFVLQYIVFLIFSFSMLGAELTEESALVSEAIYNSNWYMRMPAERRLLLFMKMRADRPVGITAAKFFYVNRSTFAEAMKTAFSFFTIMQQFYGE
T4 sequence (Q178U6 1-478 partner): T1 sequence (Q178U6 1-478 partner)
Description: as §1, §2, §3

| Compound | Raw data (Responses in nA), unitary compounds of Indoles 1, Alcohols 1, Alcohols 3 (AaegOR13; individual oocytes 1-7) | Raw data (Responses in nA), compounds of blend Alcohols 2 (AaegOR15) | Raw Data (Responses in nA), Alcohols 3 unitary compounds (AaegOR28) | further results |
| --- | --- | --- | --- | --- |
| CCC(C)(O)CCCC(C)C (stereo not shown) [tetrahydrolinalool, Tetrahydrolinalool] | 0.0 nA | 0.0 nA (3×) and 20.0 nA (4×) and 40.0 nA and 10.0 nA and 5.0 nA | 30 nA (2×) and 25 nA and 35 nA and 20 nA (2×) and 50 nA and 40 nA and 45 nA and 90 nA | EC50 (AaegOR28; AaegOR28/Orco expressing oocytes, TEVC, concentration-response of normalized current): 44.1 µM; Raw Data (Responses in nA), concentration-response (AaegOR28; concentration 1e-6): 5 nA (4×) and 0 nA (2×) and 10 nA and 20 nA; Raw Data (Responses in nA), concentration-response (AaegOR28; concentration 5e-6): 30 nA and 10 nA (2×) and 20 nA (4×) and 50 nA; Raw Data (Responses in nA), concentration-response (AaegOR28; concentration 1e-5): 40 nA (3×) and 30 nA (2×) and 50 nA and 45 nA and 95 nA; Raw Data (Responses in nA), concentration-response (AaegOR28; concentration 5e-5): 150 nA and 200 nA and 70 nA and 230 nA and 220 nA and 90 nA and 180 nA and 260 nA; Raw Data (Responses in nA), concentration-response (AaegOR28; concentration 0.0001): 290 nA and 320 nA and 140 nA and 330 nA and 400 nA and 100 nA and 220 nA and 310 nA; Raw Data (Responses in nA), concentration-response (AaegOR28; concentration 0.0005): 380 nA and 530 nA and 180 nA and 400 nA and 480 nA and 105 nA and 230 nA and 340 nA; Raw Data (Responses in nA), concentration-response (AaegOR28; concentration 0.001): 400 nA and 440 nA (2×) and 200 nA and 500 nA and 110 nA and 350 nA and 300 nA |
| isoeugenol | 0.0 nA and 110.0 nA and 25.0 nA and 40.0 nA and 35.0 nA (2×) and 15.0 nA | 0.0 nA (5×) and 10.0 nA (2×) and 20.0 nA (3×) | 0 nA | – |
| C=CC1(C)CCC(C(C)(C)O)O1 (stereo not shown) [Linalool Oxide] | – | 0.0 nA (6×) and 10.0 nA (2×) and 5.0 nA (2×) | 0 nA | – |
| COC(=O)c1c[nH]c2ccccc12 [methylindole-3-carboxylate] | – | – | – | Normalized response, Average, Indoles 1 unitary compounds (AaegOR55; average of 7 oocytes): 5.2; Raw Data (Responses in nA), Indoles 1 unitary compounds (AaegOR55; individual oocytes (Oocyte 1-7)): 20.0 nA and 10.0 nA (5×) and 15.0 nA; Normalized response, Indoles 1 unitary compounds (AaegOR55; individual oocytes (Oocyte 1-7), normalized to the strongest compound per oocyte): 8.5 and 7.1 and 4.0 and 3.3 and 5.4 and 4.9 and 3.4 |
| C=CCc1ccc(O)c(OC)c1 [Eugenol] | 20.0 nA and 430.0 nA and 105.0 nA and 220.0 nA and 160.0 nA (2×) and 100.0 nA | 0.0 nA (2×) and 5.0 nA and 10.0 nA (3×) and 15.0 nA (2×) and 30.0 nA and 20.0 nA | 0 nA | – |
| CC(C)C12CCC(C)(CC1)O2 [1,4-Cineole] | 0.0 nA | 0.0 nA (6×) and 10.0 nA (4×) | 0 nA | – |
| CC12CCC(CC1)C(C)(C)O2 [1,8-cineole] | 0.0 nA | 0.0 nA (3×) and 5.0 nA (3×) and 10.0 nA (4×) | 5 nA and 0 nA (9×) | – |
| C=CC(C)(O)CC/C=C(\C)CC/C=C(\C)CCC=C(C)C (stereo not shown) [Geranyl Linalool] | 0.0 nA | 0.0 nA (7×) and 10.0 nA (3×) | 0 nA | Normalized response, unitary compounds, Average (AaegOR13; average of oocytes 1-7): 0.0; Normalized response, unitary compounds of Indoles 1, Alcohols 1, Alcohols 3 (AaegOR13; normalized per oocyte, individual oocytes 1-7): 0.0; Normalized response, compounds of blend Alcohols 2, Average (AaegOR15): 0.4; Normalized response, compounds of blend Alcohols 2 (AaegOR15): 0.0 (7×) and 1.3 and 0.9 and 1.7; Normalized response, Average, Alcohols 3 unitary compounds (AaegOR28): 0.0; Normalized response, Alcohols 3 unitary compounds (AaegOR28): 0.0 (9×) and 0 |
| C=C[C@](C)(O)CCC=C(C)C [(R)-(-)-linalool] | – | 0.0 nA (3×) and 10.0 nA (2×) and 20.0 nA and 25.0 nA and 40.0 nA (2×) and 15.0 nA | 10 nA (5×) and 5 nA (4×) and 20 nA | Normalized response, compounds of blend Alcohols 2, Average (AaegOR15): 2.4; Normalized response, compounds of blend Alcohols 2 (AaegOR15): 0.0 (3×) and 1.4 and 2.6 and 3.7 (2×) and 1.7 and 5.4 and 5.5; Normalized response, Average, Alcohols 3 unitary compounds (AaegOR28): 25.1; Normalized response, Alcohols 3 unitary compounds (AaegOR28): 33.3 and 28.6 and 50.0 and 25.0 and 20.0 and 16.7 and 12.5 and 22.2 (2×) and 20 |
